Values of other authors in patent publication US6960354B1, “Membrane lipid compositions” (Phares Technology BV, priority 1999, dated 2005).

solubility in ethanol (ethanol): soluble
solubility in water (water): only sparingly soluble
SMILES: O=C(O)c1ccccc1O [Salicylic acid]
